PubChem BioAssay AID256 (DTP/NCI, 2004)
Values joined by “and” are separate entries in the source; they are usually repeats but may differ in a detail not shown here. Equal values may be shown once. Toxic doses and inconclusive results are not listed. How the source made its calls: active means survival T/C of 150% or more; inactive means T/C below 125% in these data.

Tested on: CD2F1 mice, L1210 leukemia ip, survival T/C
Assay: NCI In Vivo Anticancer Drug Screen. Data for tumor model L1210 Leukemia (intraperitoneal) in CD2F1 (CDF1) mice
Conditions: endpoint: mean survival time, higher = longer survival
Outline: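 Activity against a transplanted murine tumor was judged by comparing the compound group with a vehicle group. The outcome in the treated animals was divided by that in the controls.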

[1] = dose: 100.0 mg/kg/injection, schedule: Q04DX003 (ip), vehicle: saline with Tween-80
[2] = dose: 200.0 mg/kg/injection, schedule: Q04DX003 (ip), vehicle: saline with Tween-80
[3] = dose: 400.0 mg/kg/injection, schedule: Q04DX003 (ip), vehicle: saline with Tween-80
[4] = dose: 50.0 mg/kg/injection, schedule: Q01DX009 (ip), vehicle: saline
[5] = dose: 100.0 mg/kg/injection, schedule: Q01DX009 (ip), vehicle: saline
[6] = dose: 100.0 mg/kg/injection, schedule: Q04DX003 (ip), vehicle: saline
[7] = dose: 200.0 mg/kg/injection, schedule: Q04DX003 (ip), vehicle: saline
[8] = dose: 100.0 mg/kg/injection, schedule: Q01DX009 (ip), vehicle: saline with Tween-80
[9] = dose: 200.0 mg/kg/injection, schedule: Q01DX009 (ip), vehicle: saline with Tween-80
[10] = dose: 400.0 mg/kg/injection, schedule: Q01DX009 (ip), vehicle: saline with Tween-80
[11] = dose: 100.0 mg/kg/injection, schedule: Q01DX001 (ip), vehicle: saline with Tween-80
[12] = dose: 200.0 mg/kg/injection, schedule: Q01DX001 (ip), vehicle: saline with Tween-80
[13] = dose: 400.0 mg/kg/injection, schedule: Q01DX001 (ip), vehicle: saline with Tween-80

Measured: T/C

NC(N)=NCCc1ccccc1
inactive: dose: 5.0 mg/kg/injection, schedule: Q01DX009 (ip), vehicle: saline 102 % of control | dose: 5.0 mg/kg/injection, schedule: Q04DX003 (ip), vehicle: saline 92 % of control | dose: 10.0 mg/kg/injection, schedule: Q01DX009 (ip), vehicle: saline 103 % of control | dose: 10.0 mg/kg/injection, schedule: Q04DX003 (ip), vehicle: saline 102 % of control | dose: 20.0 mg/kg/injection, schedule: Q01DX009 (ip), vehicle: saline 96 % of control | dose: 20.0 mg/kg/injection, schedule: Q04DX003 (ip), vehicle: saline 97 % of control

c1cc2c(cc1CNC1=NCCO1)OCO2
inactive: [1] 98 % of control | [2] 105 % of control | [3] 98 % of control

CCOC(=O)c1cnc(N(C)C)nc1SC(=N)N
inactive: [4] 102 % of control | [5] 118 % of control | [6] 106 % of control | [7] 91 % of control

COC(=O)C1C2C(=O)NC(=O)C2C(c2ccc(-c3ccccc3)cc2)N1C1CCCCC1 (centres undefined)
inactive: [1] 105 % of control | [2] 100 % of control | [3] 103 % of control

CC1COCC(C)N1 (centres undefined)
inactive: [6] 96 % of control | [7] 98 % of control | dose: 400.0 mg/kg/injection, schedule: Q04DX003 (ip), vehicle: saline 96 % of control

CC(C)OC(=O)Nc1cc(F)cc(C(F)(F)F)c1F
inactive: [8] 94 % of control | [9] 97 % of control | [10] 97 % of control

CCn1c(-c2cccc(N)c2)cc(=O)n1-c1ccccc1
inactive: [1] 98 % of control | [2] 96 % of control | [3] 90 % of control

N#C[S-].N#C[S-].[NH-]CC[NH-].[Pt+4]
inactive: dose: 10.0 mg/kg/injection, schedule: Q04DX003 (ip), vehicle: saline with Tween-80 97 % of control | dose: 20.0 mg/kg/injection, schedule: Q04DX003 (ip), vehicle: saline with Tween-80 98 % of control | dose: 40.0 mg/kg/injection, schedule: Q04DX003 (ip), vehicle: saline with Tween-80 106 % of control

O=C(CNC(=O)Nc1ccc(F)cc1)N/N=C/c1cc(Br)ccc1O
inactive: dose: 50.0 mg/kg/injection, schedule: Q01DX009 (ip), vehicle: saline with Tween-80 100 % of control | [8] 96 % of control | [9] 88 % of control

CC(C)COP(=O)(OCC(C)C)OCC(C)C
inactive: [1] 100 % of control | [2] 92 % of control

FCCc1ccccc1
inactive: dose: 50.0 mg/kg/injection, schedule: Q04DX003 (ip), vehicle: saline sonified 98 % of control | [11] 97 % of control and 94 % of control | dose: 100.0 mg/kg/injection, schedule: Q04DX003 (ip), vehicle: saline sonified 98 % of control | [12] 95 % of control | dose: 200.0 mg/kg/injection, schedule: Q04DX003 (ip), vehicle: saline sonified 98 % of control | [13] 103 % of control and 94 % of control

CN(Cc1cnc2nc(N)nc(N)c2n1)c1ccc(C(=O)NC(CCC(=O)NC(CCC(=O)NC(CCC(=O)NC(CCC(=O)O)C(=O)O)C(=O)O)C(=O)O)C(=O)O)cc1 (centres undefined)
inactive: dose: 0.5 mg/kg/injection, schedule: Q01DX005 (ip), vehicle: sodium bicarbonate 102 % of control | dose: 1.0 mg/kg/injection, schedule: Q01DX005 (ip), vehicle: sodium bicarbonate 114 % of control and 111 % of control | dose: 2.0 mg/kg/injection, schedule: Q01DX005 (ip), vehicle: sodium bicarbonate 118 % of control

O=c1cc(NCCCOc2ccccc2)[nH]c(=O)[nH]1
inactive: [11] 98 % of control | [12] 98 % of control | [13] 98 % of control

COC(OC)C1C2C3C=CC(C4C(=O)OC(=O)C34)C12 (centres undefined)
inactive: [8] 98 % of control | [1] 97 % of control | [9] 93 % of control | [2] 110 % of control | [10] 95 % of control | [3] 103 % of control

C=CCOP(=O)(OCC=C)C(Cl)(Cl)Cl
inactive: dose: 75.0 mg/kg/injection, schedule: Q01DX001 (ip), vehicle: other 109 % of control | dose: 150.0 mg/kg/injection, schedule: Q01DX001 (ip), vehicle: other 97 % of control | dose: 300.0 mg/kg/injection, schedule: Q01DX001 (ip), vehicle: other 109 % of control

Cc1cc(NC(=O)Oc2ccccc2)ccc1S(=O)(=O)F
inactive: [4] 98 % of control | [5] 94 % of control | dose: 200.0 mg/kg/injection, schedule: Q01DX009 (ip), vehicle: saline 98 % of control

CCCCCCCCc1ccc(NNC(N)=S)cc1
inactive: dose: 1.56 mg/kg/injection, schedule: Q01DX009 (ip), vehicle: saline 93 % of control and 98 % of control and 101 % of control | dose: 3.12 mg/kg/injection, schedule: Q01DX009 (ip), vehicle: saline 96 % of control (2×) and 106 % of control | dose: 6.25 mg/kg/injection, schedule: Q01DX009 (ip), vehicle: saline 96 % of control and 97 % of control and 104 % of control | dose: 12.5 mg/kg/injection, schedule: Q01DX009 (ip), vehicle: saline 97 % of control (2×) and 101 % of control

CNC(=O)Oc1cccc(NC(=O)OCCC(C)C)c1
inactive: [11] 96 % of control | [12] 93 % of control | [13] 96 % of control

CC1COC(C(=O)O)(c2ccccc2)O1 (centres undefined)
inactive: dose: 100.0 mg/kg/injection, schedule: Q04DX002 (ip), vehicle: saline 96 % of control | dose: 200.0 mg/kg/injection, schedule: Q04DX002 (ip), vehicle: saline 108 % of control | dose: 400.0 mg/kg/injection, schedule: Q04DX002 (ip), vehicle: saline 100 % of control

CCCCCCCCCCCC(=O)/C=C/Sc1n[nH]c(=O)[nH]c1=O
inactive: dose: 12.5 mg/kg/injection, schedule: Q01DX005 (ip), vehicle: distilled water + Tween-80 102 % of control | dose: 25.0 mg/kg/injection, schedule: Q01DX005 (ip), vehicle: distilled water + Tween-80 104 % of control | dose: 50.0 mg/kg/injection, schedule: Q01DX005 (ip), vehicle: distilled water + Tween-80 100 % of control | dose: 100.0 mg/kg/injection, schedule: Q01DX005 (ip), vehicle: distilled water + Tween-80 102 % of control

c1ccc([As]2[As](c3ccccc3)[As](c3ccccc3)[As]2c2ccccc2)cc1 (centres undefined)
inactive: dose: 5.0 mg/kg/injection, schedule: Q01DX001 (ip), vehicle: saline 101 % of control | dose: 10.0 mg/kg/injection, schedule: Q01DX001 (ip), vehicle: saline 108 % of control | dose: 20.0 mg/kg/injection, schedule: Q01DX001 (ip), vehicle: saline 111 % of control | dose: 40.0 mg/kg/injection, schedule: Q01DX001 (ip), vehicle: saline 113 % of control | dose: 80.0 mg/kg/injection, schedule: Q01DX001 (ip), vehicle: saline 119 % of control

CCOc1ccccc1N1C(=O)CSC1=S
inactive: dose: 25.0 mg/kg/injection, schedule: Q04DX002 (ip), vehicle: other 93 % of control | dose: 50.0 mg/kg/injection, schedule: Q04DX002 (ip), vehicle: other 93 % of control | dose: 100.0 mg/kg/injection, schedule: Q04DX002 (ip), vehicle: other 89 % of control | dose: 200.0 mg/kg/injection, schedule: Q04DX002 (ip), vehicle: other 101 % of control

S=C1NC(c2ccccc2)NC(c2ccccc2)S1 (centres undefined)
inactive: dose: 12.0 mg/kg/injection, schedule: Q04DX003 (ip), vehicle: other 86 % of control | dose: 25.0 mg/kg/injection, schedule: Q04DX003 (ip), vehicle: other 97 % of control | dose: 50.0 mg/kg/injection, schedule: Q04DX003 (ip), vehicle: other 90 % of control

Cc1ccc(NC(=O)c2ccccc2Cl)cc1C
inactive: [1] 97 % of control | [2] 103 % of control | [3] 93 % of control

CCOC(=O)/C=C(C)/C=C/C=C(/C)CCC=C(C)C
inactive: dose: 100.0 mg/kg/injection, schedule: Q04DX002 (ip), vehicle: saline with Tween-80 100 % of control | dose: 200.0 mg/kg/injection, schedule: Q04DX002 (ip), vehicle: saline with Tween-80 100 % of control | dose: 400.0 mg/kg/injection, schedule: Q04DX002 (ip), vehicle: saline with Tween-80 92 % of control
